Key:
[1] = biological target: T1, CB2 receptor (Homo sapiens, UniProt P34972); assay: CB2 receptor binding, [3H]CP55940 competition; details: data not shown; read-out: predicted Ki, CB2 receptor
T1 construct: purchased Perkin-Elmer Life and Analytical Sciences, Boston, MA; host or cells: HEK293 EBNA cells stably expressing the receptor
Protocol: CB1 and CB2 receptor binding affinities were determined by competition studies using [^3H]CP55940 as radioligand and commercial membrane preparations of HEK293 EBNA cells stably expressing the respective receptor type (Perkin-Elmer Life and Analytical Sciences, Boston, MA), following a procedure previously described.

[2] = tested on: HiB5 cells; assay: Quinolinic acid-induced cell death and apoptosis in HiB5 cells; type: cell-based
Protocol: (§1) Figure 4 In vitro neuroprotective action of VCE-003.2. (a) HiB5 cells were treated with quinolinic acid (QA; 2,5 mM) in the presence or the absence of VCE-003.2 (50 and 250 nM) and cell viability was determined after 24 h by the MTT assay. (b) QA-induced apoptosis measured by cleaved caspase 3 immunostaining (upper panel) of differentiating HiB5 cells was quantified in the presence or absence of VCE-003.2 (250 nM). Cell counts were referred to total cell nuclei counterstained with DAPI and c-caspase3^+ cell quantification is shown in the lower panel. […]. (d) Aggregation of mut-Htt was assessed by fluorescence microscopy in immortalized striatal STHdh transfected cells with a CFP-tagged expression vector of mutant huntingtin (mut-Htt) and counterstained with fluorescent phalloidin (upper panel). […]. Results are representative of three independent experiments. Values are expressed as means ± S. D. *p < 0.05 and ***p < 0.001 vs. Vehicle; ^#p < 0.05 ^##p < 0.01 vs. QA. […]
(§2) The HiB5 hippocampal progenitor cell line (kindly provided by Prof. Z. Kokaia, Lund Stem Cell Center, Sweden) was grown as described[46] in DMEM supplemented with 2 mM glutamine, 1% penicillin/streptomycin and 10% (v/v) fetal calf serum (FCS; Lonza, Switzerland). […] Cell viability was determined after 24 h using the 3-[4,5-dimethylthiazol-2-yl]-2,5-diphenyltetrazolium bromide (MTT) tesresults int. […]

[3] = tested on: mutant huntingtin (mut-Htt) aggregates in striatal STHdh cells; assay: Mutant huntingtin aggregation in transfected STHdh cells; type: cell-based, mouse; details: STHdh cells transfected with exon 1 mut-htt, 94 polyglutamine repeats
Protocol: as §1, §2

T1 sequence (P34972 whole entry): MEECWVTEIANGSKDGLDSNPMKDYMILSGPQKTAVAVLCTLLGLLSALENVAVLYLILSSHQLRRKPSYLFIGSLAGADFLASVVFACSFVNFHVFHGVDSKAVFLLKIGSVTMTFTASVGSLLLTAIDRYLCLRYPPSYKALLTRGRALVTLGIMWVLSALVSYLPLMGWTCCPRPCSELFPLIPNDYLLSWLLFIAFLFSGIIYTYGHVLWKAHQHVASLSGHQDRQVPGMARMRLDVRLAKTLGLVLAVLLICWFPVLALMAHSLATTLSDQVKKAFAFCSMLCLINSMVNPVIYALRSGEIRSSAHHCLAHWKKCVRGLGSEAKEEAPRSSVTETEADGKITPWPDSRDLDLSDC

SMILES: CCCCCC1=C(NCC)C(=O)C(C/C=C(\C)CCC=C(C)C)=C(O)C1=O [VCE-003.2]
- Ki [1]: > 40 µM
- QA-induced NP cell death ([2]; HiB5, QA 2,5 mM, VCE-003.2 50 and 250 nM, 24 h MTT): fully prevented
- QA-induced apoptosis (cleaved caspase 3) ([2]; differentiating HiB5, VCE-003.2 250 nM): significantly inhibited
- cells with mut-Htt aggregates [3]: reduced the number of cells with aggregates

Source: paper PMC4949444 (Scientific Reports, 2016)
